Measurements reported in ChEMBL document CHEMBL1150993, “Design of dual acting anticonvulsant-antimuscarinic succinimide and hydantoin derivatives” (Bioorg Med Chem Lett, 1997).
Several values for one entry are separate records, joined by “and”; a condition that tells them apart may be missing. Equal entries are not always repeated.

What was measured:
[1] = molecular target: T1, Muscarinic acetylcholine receptor M1 (Rattus norvegicus, UniProt P08482); test: Displacement of [3H]pirenzepine from muscarinic M1 receptor of rat cortex homogenates.
T1 sequence (P08482 whole entry): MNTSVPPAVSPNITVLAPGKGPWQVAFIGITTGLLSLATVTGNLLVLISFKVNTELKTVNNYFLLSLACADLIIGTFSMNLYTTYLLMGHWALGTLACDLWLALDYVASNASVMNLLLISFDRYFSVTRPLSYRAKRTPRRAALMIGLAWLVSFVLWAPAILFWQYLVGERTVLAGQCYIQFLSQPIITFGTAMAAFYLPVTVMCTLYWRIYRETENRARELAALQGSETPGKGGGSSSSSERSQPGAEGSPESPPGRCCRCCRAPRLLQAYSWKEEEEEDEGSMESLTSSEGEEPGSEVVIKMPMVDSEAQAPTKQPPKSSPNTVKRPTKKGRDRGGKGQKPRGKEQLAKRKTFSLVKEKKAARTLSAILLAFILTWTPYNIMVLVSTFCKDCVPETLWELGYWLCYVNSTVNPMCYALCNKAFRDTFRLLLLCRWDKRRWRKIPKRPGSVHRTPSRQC

[2] = molecular target: T2, Muscarinic acetylcholine receptor M2 (Rattus norvegicus, UniProt P10980); test: Displacement of [3H]QNB (quinuclidinyl benzylate) from muscarinic M2 receptor of rat heart homogenates.; assay type: tissue-based
T2 sequence (P10980 whole entry): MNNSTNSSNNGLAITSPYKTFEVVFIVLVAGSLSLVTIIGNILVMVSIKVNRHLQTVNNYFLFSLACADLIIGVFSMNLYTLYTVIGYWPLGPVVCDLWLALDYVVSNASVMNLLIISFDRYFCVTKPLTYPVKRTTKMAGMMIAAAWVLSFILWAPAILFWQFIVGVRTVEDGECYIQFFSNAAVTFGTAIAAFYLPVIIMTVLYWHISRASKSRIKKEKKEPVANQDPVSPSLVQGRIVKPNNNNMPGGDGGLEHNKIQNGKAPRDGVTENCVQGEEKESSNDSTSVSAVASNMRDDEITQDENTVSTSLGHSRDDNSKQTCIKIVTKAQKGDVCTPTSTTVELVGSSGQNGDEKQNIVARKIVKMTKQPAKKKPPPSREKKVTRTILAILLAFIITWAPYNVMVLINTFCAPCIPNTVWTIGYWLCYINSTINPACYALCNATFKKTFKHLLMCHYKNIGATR

Mus musculus = test: Anticonvulsant activity was determined in MES model, after 1 hour post administration in mice; assay type: functional

CCN(CC)CC#CCN1C(=O)c2ccccc2C1=O
Ki [1]: 30 nM
Ki [2]: 100 nM

O=C1NC(c2ccccc2)(c2ccccc2)C(=O)N1CC#CCN1CCCC1
Ki [1]: 640 nM
Ki [2]: > 10000 nM

O=C1CC2(CCc3ccccc32)C(=O)N1CC#CCN1CCCC1 (stereo not drawn)
ED50 (Mus musculus): > 600 mg/kg
Ki [1]: 1590 nM
Ki [2]: > 10000 nM

CCN(CC)CC#CCN1C(=O)CC2(C1=O)c1ccccc1-c1ccccc12
ED50 (Mus musculus): 23.7 mg/kg and 58 µmol/kg
Ki [1]: 1630 nM
Ki [2]: > 10000 nM

O=C1NC(=O)C(c2ccccc2)(c2ccccc2)N1 [PHENYTOIN]
ED50 (Mus musculus): 16.2 mg/kg

CCN(CC)CC#CCN1C(=O)CC2(C1=O)c1ccccc1CCc1ccccc12
ED50 (Mus musculus): 9.6 mg/kg and 22 µmol/kg
Ki [1]: 460 nM
Ki [2]: 2090 nM

CC(C)N(CC#CCN1C(=O)CC2(C1=O)c1ccccc1-c1ccccc12)C(C)C
Ki [1]: 1620 nM
Ki [2]: > 10000 nM

CC(C)N(CC#CCN1C(=O)CC(c2ccccc2)(c2ccccc2)C1=O)C(C)C
ED50 (Mus musculus): 17.5 mg/kg and 40 µmol/kg
Ki [1]: 530 nM
Ki [2]: 440 nM

CCN(CC)CC#CCN1C(=O)NC(c2ccccc2)(c2ccccc2)C1=O
ED50 (Mus musculus): 83.6 mg/kg
Ki [1]: 380 nM
Ki [2]: 950 nM

CCN(CC)CC#CCN1C(=O)NC2(CCc3ccccc32)C1=O (stereo not drawn)
ED50 (Mus musculus): 55.4 mg/kg and 153 µmol/kg
Ki [1]: 1050 nM
Ki [2]: > 10000 nM

CCN(CC)CC#CCN1C(=O)CC(c2ccccc2)(c2ccccc2)C1=O
ED50 (Mus musculus): 20.1 mg/kg and 49 µmol/kg
Ki [1]: 120 nM
Ki [2]: 380 nM

CCN(CC)CC#CCN1C(=O)CC2(CCc3ccccc32)C1=O (stereo not drawn)
Ki [1]: 680 nM
Ki [2]: > 10000 nM

CCN(CC)CC#CCN1C(=O)CC(c2ccccc2)C1=O (stereo not drawn)
ED50 (Mus musculus): 48.9 mg/kg and 126 µmol/kg
Ki [1]: 2300 nM
Ki [2]: > 10000 nM
